Like-named read-outs stand apart in the source and are kept apart here.
Experiments:
Assay type in all cases: cell-based
[1] = system: SW48 (human colon adenocarcinoma cell); assay: Cell viability assay (Promega CellTiter-Glo), inhibitory effect on SW48; conditions: 72 h, 3 days of culture
Protocol: (§1) The inhibitory effect of the compounds prepared in the Examples of the present invention on various tumor cell lines was detected using cell viability assay reagent.
(§2) Cell viability was detected using the Promega CellTiter-Glo kit, cell viability was determined by directly measuring intracellular ATP content. In the experiment, the ICso value of the compounds prepared in the Examples of the present invention on various tumor cell lines was detected.
(§3) Each tumor cell was cultured in relevant medium. After cell passage, the gradient diluted compounds prepared in the Examples of the present invention was added. After 3 days of culture, the relevant IC50 (50% inhibiting concentration) was measured. The name, source and culture conditions of each tumor cell line were as follows:
Cell line SW48 (ATCC, No. CCL-231) was cultured in 10% fetal bovine serum-containing Leibovitz's L-15 medium (+P/S).

[2] = system: 786-O (clear cell renal cell adenocarcinoma cell); assay: Cell viability assay (Promega CellTiter-Glo), inhibitory effect on 786-O; conditions: Homo sapiens, 786-0, 72 h, 3 days of culture
Protocol: as §1, §2, §3
Cell line 786-0 (ATCC, No. CRL-1932) was cultured in 10% fetal bovine serum-containing RPMI1640 medium (+P/S).

[3] = system: Kelly (brain neuroblastoma cell); assay: Cell viability assay (Promega CellTiter-Glo), inhibitory effect on Kelly; conditions: Homo sapiens, 72 h, 3 days of culture, read-out: inhibitory effect on brain cell line Kelly (IC50)
Protocol: (§4) The inhibitory effect of the compounds prepared in the Examples of the present invention on various brain tumor cell lines was detected using cell viability assay reagent.
(§5) Cell viability was detected using the Promega CellTiter-Glo kit, cell viability was determined by directly measuring intracellular ATP content. In the experiment, the IC50 value of the compounds prepared in the Examples of the present invention on various brain tumor cell lines was detected.
as §3
Cell line Kelly (ECACC, No. 92110411) was cultured in 10% fetal bovine serum and 2 mM glutamine-containing RPMI1640 medium.

[4] = system: NCI-H82 (human small cell lung cancer cell); assay: Cell viability assay (Promega CellTiter-Glo), inhibitory effect on NCI-H82; conditions: 72 h, 3 days of culture
Protocol: as §1, §2, §3
Cell line NCI-H82 (ATCC, No. HTB-175) was cultured in 10% fetal bovine serum-containing RPMI1640 medium (+P/S).

[5] = system: MDA-MB-453 (breast cancer cell); assay: Cell viability assay (Promega CellTiter-Glo), inhibitory effect on MDA-MB-453; conditions: Homo sapiens, 72 h, 3 days of culture
Protocol: as §1, §2, §3
Cell line MDA-MB-453 (ATCC, No. HTB-131) was cultured in 10% fetal bovine serum-containing Leibovitz's L-15 medium (+P/S).

[6] = system: ov-NNMT NCI-H82 cell (NNMT protein-overexpressing NCI-H82); assay: Cell viability assay (Promega CellTiter-Glo), inhibitory effect on ov-NNMT NCI-H82 cell; conditions: Homo sapiens
Protocol: (§6) The role of expression level of NNMT gene and DNMT1 in the sensitivity of NCI-H82 cell to the compounds prepared in the Examples of the present invention was determined
(§7) The expression of NNMT protein in NCI-H82 cell was overexpressed by inserting the NNMT gene into NCI-H82 cell using a viral vector, and the NNMT protein-overexpressing NCI-H82 cell (ov-NNMT NCI-H82 cell) was obtained. The expression of DNMT1 in NCI-H82 cell was knocked down transfecting (the by shRNA nucleotide sequence of shRNA was […] TTTTTG (SEQ ID No: 2)) using a viral vector, and the NCI-H82 cell with low expression of DNMT1 protein (sh-DNMT1 NCI-H82 cell) was obtained. The control NCI-H82 cell (Con-NCI-H82 cell) was obtained by transfecting NCI-H82 cell with empty virus vector without carrying NNMT gene and shRNA. The expressing content of NNMT protein and DNMT1 protein in the Con-NCI-H82 cell, the expressing content of NNMT protein in the ov-NNMT NCI-H82 cell, and the expressing content of DNMT1 protein in the sh-DNMT1 NCI-H82 cell were detected using Western Blot assay (as shown in FIG. 15 and FIG. 16), it could be seen from FIG. 15 and FIG. 16 that the NNMT protein was overexpressed in the ov-NNMT NCI-H82 cell and the expression of DNMT1 protein was knocked down (i.e, low expression) in the sh-DNMT1 NCI-H82 cell compared with the expression level of NNMT protein and DNMT protein in the Con-NCI-H82 cell.

[7] = system: G-401 (human renal carcinoma Wilms cell); assay: Cell viability assay (Promega CellTiter-Glo), inhibitory effect on G-401; conditions: 72 h, 3 days of culture
Protocol: as §1, §2, §3
Cell line G-401 (ATCC, No. CRL-1441) was cultured in 10% fetal bovine serum-containing McCoy's 5a medium (+P/S).

[8] = system: NB-1 (brain neuroblastoma cell); assay: Cell viability assay (Promega CellTiter-Glo), inhibitory effect on NB-1; conditions: Homo sapiens, 72 h, 3 days of culture, read-out: inhibitory effect on brain cell line NB-1 (IC50)
Protocol: as §4, §5, §3
Cell line NB-1 (ATCC, No. HTB-131) was cultured in 10% fetal bovine serum-containing Leibovitz's L-15 medium (+P/S).

[9] = system: GB-1 (human brain glioblastoma cell); assay: Cell viability assay (Promega CellTiter-Glo), inhibitory effect on GB-1; conditions: 72 h, 3 days of culture
Protocol: as §1, §2, §3
Cell line GB-1 (JCRB, No. IFO50489) was cultured in 10% fetal bovine serum-containing DMEM medium (+P/S).
as §4, §5

[10] = system: Con-NCI-H82 cell (NCI-H82 transfected with empty virus vector); assay: Cell viability assay (Promega CellTiter-Glo), inhibitory effect on Con-NCI-H82 cell; conditions: Homo sapiens; NCI-H82 transfected with empty virus vector (control); CellTiter-Glo; read-out: inhibitory effect on Con-NCI-H82 (IC50)
Protocol: as §6, §7

[11] = system: CFPAC-1 (human pancreatic cancer cell); assay: Cell viability assay (Promega CellTiter-Glo), inhibitory effect on CFPAC-1; conditions: 72 h, 3 days of culture
Protocol: as §1, §2, §3
Cell line CFPAC-1 (ATCC, No. CRL-1918) was cultured in 10% fetal bovine serum-containing IMDM medium (+P/S).

[12] = system: SF126 (human glioblastoma multiforme cell); assay: Cell viability assay (Promega CellTiter-Glo), inhibitory effect on SF126
Protocol: as §1, §2, §3
Cell line SF126 (JCRB, No. IFO50286) was cultured in 10% fetal bovine serum-containing EMEM medium (+P/S).
as §4, §5

[13] = system: D341 Med (cerebellar medulloblastoma cell); assay: Cell viability assay (Promega CellTiter-Glo), inhibitory effect on D341 Med; conditions: Homo sapiens, 72 h, 3 days of culture, read-out: inhibitory effect on brain cell line D341 Med (IC50)
Protocol: as §4, §5, §3
Cell line D341 Med (ATCC, No. HTB-187) was cultured in 20% fetal bovine serum-containing EMEM medium (+P/S).

[14] = system: sh-DNMT1 NCI-H82 cell (DNMT1 knocked down NCI-H82); assay: Cell viability assay (Promega CellTiter-Glo), inhibitory effect on sh-DNMT1 NCI-H82 cell; conditions: Homo sapiens, NCI-H82 with DNMT1 knocked down by shRNA
Protocol: as §6, §7

[15] = Table 3, read-out: inhibitory effect on GB-1 (IC50)
[16] = Table 4, read-out: inhibitory effect on brain cell line GB-1 (IC50)
[17] = 72 h, SF-126, 3 days of culture, Table 3, read-out: inhibitory effect on SF-126 (IC50)
[18] = SF-126, 72 h, SF126, 3 days of culture, Table 4, read-out: inhibitory effect on brain cell line SF126 (IC50)

| IC50 [1] | IC50 [2] | IC50 [3] | IC50 [4] | IC50 [5] | IC50 [6] | IC50 [7] | IC50 [8] | IC50 [9, 15] | IC50 [9, 16] | IC50 [10] | IC50 [11] | IC50 [12, 17] | IC50 [12, 18] | IC50 [13] | IC50 [14] | Compound |
| --- | --- | --- | --- | --- | --- | --- | --- | --- | --- | --- | --- | --- | --- | --- | --- | --- |
| 0.49 µM | 5.41 µM | 0.59 µM | 0.36 µM | 0.4 µM | 0.92 µM | 0.42 µM | 0.12 µM | 6.47 µM | 6.47 µM | 0.36 µM | 8.32 µM | 5.14 µM | 5.14 µM | 0.98 µM | 1.38 µM | CCCCCc1c2[n+](cc3c(OC)c(OC)ccc13)CCc1cc3c(cc1-2)OCO3 [compound AB31758] |
| 0.31 µM | 3.18 µM | 0.41 µM | 0.27 µM | 0.31 µM | 0.64 µM | 0.31 µM | 0.12 µM | 3.47 µM | 3.47 µM | 0.27 µM | 8.15 µM | 3.94 µM | 3.94 µM | 0.85 µM | 1.18 µM | CCCCCCc1c2[n+](cc3c(OC)c(OC)ccc13)CCc1cc3c(cc1-2)OCO3 [compound AB31759] |
| 0.21 µM | 1.6 µM | 0.23 µM | 0.15 µM | 0.25 µM | 0.35 µM | 0.15 µM | 0.09 µM | 3.67 µM | 3.67 µM | 0.15 µM | 2.71 µM | 3.89 µM | 3.89 µM | 0.7 µM | 0.71 µM | CCCCCCCc1c2[n+](cc3c(OC)c(OC)ccc13)CCc1cc3c(cc1-2)OCO3 [compound AB31760] |
| 1.16 µM | 9.09 µM | 1.29 µM | 1.34 µM | 1.07 µM | 2.88 µM | 1.27 µM | 0.3 µM | 14.8 µM | 14.8 µM | 1.34 µM | 21.7 µM | 9.8 µM | 9.8 µM | 1.63 µM | 4.05 µM | COc1ccc2c(CCC(C)C)c3[n+](cc2c1OC)CCc1cc2c(cc1-3)OCO2 [compound AB31765] |
| 0.37 µM | 2.1 µM | 0.3 µM | 0.26 µM | 0.27 µM | 0.65 µM | 0.18 µM | 0.12 µM | 3.61 µM | 3.61 µM | 0.26 µM | 4.31 µM | 3.7 µM | 3.7 µM | 0.57 µM | 0.98 µM | CCCCCCc1c2c(OC)c(OC)ccc2cc2[n+]1CCc1cc3c(cc1-2)OCO3 [compound AB31767] |
| 1.37 µM | 20.8 µM | 2.21 µM | 1.87 µM | 0.35 µM | 3.94 µM | 2.04 µM | 1.04 µM | 11.2 µM | 11.2 µM | 1.87 µM | 17.1 µM | 15.7 µM | 15.7 µM | 1.66 µM | 5.81 µM | COc1ccc2cc3[n+](cc2c1OC(=O)CC12CC4CC(CC(C4)C1)C2)CCc1cc2c(cc1-3)OCO2 [compound AB31771] |
| 0.79 µM | 8.05 µM | 1.16 µM | 0.66 µM | 0.9 µM | 1.52 µM | 0.88 µM | 0.23 µM | 12.6 µM | 12.6 µM | 0.66 µM | 17.9 µM | 9.75 µM | 9.75 µM | 1.88 µM | 1.98 µM | COc1ccc2c(CCc3ccccc3)c3[n+](cc2c1OC)CCc1cc2c(cc1-3)OCO2 [compound AB31780] |
| 0.4 µM | 5.34 µM | 0.73 µM | 0.33 µM | 0.76 µM | 1.16 µM | 0.37 µM | 0.14 µM | 8.6 µM | 8.6 µM | 0.33 µM | 11.3 µM | 7.48 µM | 7.48 µM | 0.82 µM | 1.42 µM | COc1ccc2c(CCCc3ccccc3)c3[n+](cc2c1OC)CCc1cc2c(cc1-3)OCO2 [compound AB31781] |
| 0.48 µM | 4.09 µM | 0.69 µM | 0.34 µM | 0.28 µM | 0.88 µM | 0.49 µM | 0.08 µM | 4.23 µM | 4.23 µM | 0.34 µM | 6.63 µM | 4.29 µM | 4.29 µM | 0.33 µM | 1.31 µM | COc1ccc2cc3[n+](cc2c1OCCCCCCBr)CCc1cc2c(cc1-3)OCO2 [compound AB31787] |
| 0.69 µM | 10.8 µM | 1.3 µM | 0.71 µM | 1.03 µM | 2.42 µM | 0.63 µM | 0.31 µM | 16.5 µM | 16.5 µM | 0.71 µM | 16.9 µM | 10.9 µM | 10.9 µM | 1.88 µM | 2.95 µM | COc1ccc2c(Cc3ccc(OC(F)(F)F)cc3)c3[n+](cc2c1OC)CCc1cc2c(cc1-3)OCO2 [compound AB31788] |

From patent publication US20250195502A1, “APPLICATION OF TETRACYCLIC COMPOUND IN TREATMENT OF TUMORS” (SHANGHAI SHIJIANG BIOTECHNOLOGY CO., LTD, priority 2022, published 2025)
